{"source": "paper PMC9370560", "about": "“5-Demethoxy-10′-ethoxyexotimarin F, a New Coumarin with MAO-B Inhibitory Potential from Murraya exotica L” (Molecules, 2022)", "key": {"MAO-A": {"target": "T1, MAO-A (Homo sapiens, UniProt P21397)", "T1 sequence (P21397 1-527)": "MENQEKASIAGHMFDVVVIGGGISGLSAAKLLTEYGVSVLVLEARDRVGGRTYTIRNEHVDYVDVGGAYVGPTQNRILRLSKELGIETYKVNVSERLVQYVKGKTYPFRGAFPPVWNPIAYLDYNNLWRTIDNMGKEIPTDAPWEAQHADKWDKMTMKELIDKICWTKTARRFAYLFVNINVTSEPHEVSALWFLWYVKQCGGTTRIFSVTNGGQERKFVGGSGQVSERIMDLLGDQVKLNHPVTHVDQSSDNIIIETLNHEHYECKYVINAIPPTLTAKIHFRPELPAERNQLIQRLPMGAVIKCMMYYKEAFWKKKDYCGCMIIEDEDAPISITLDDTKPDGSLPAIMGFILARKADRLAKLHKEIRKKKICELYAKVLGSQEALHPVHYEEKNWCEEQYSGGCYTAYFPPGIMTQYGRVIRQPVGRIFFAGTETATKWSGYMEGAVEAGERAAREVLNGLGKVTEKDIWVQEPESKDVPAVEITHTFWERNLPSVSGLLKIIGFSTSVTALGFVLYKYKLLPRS", "assay": "biochemical", "conditions": "mean ± S.E.M. from three experiments"}, "[1]": {"test_system": "T2, butyrylcholinesterase (BuChE)", "T2 construct": "acetylcholinesterase and butyrylcholinesterase derived from human erythrocytes; purchased Sigma Chemical (St. Louis, MO, USA); host or cells: human erythrocytes (so in the source)", "assay": "Butyrylcholinesterase inhibitory activity (Ellman's method)", "type": "biochemical, human", "conditions": "50 μM", "description": "(§1) S-Acetylthiocholine iodide, S-butyrylthiocholineiodide, 5,5′-dithio-bis-(2-nitrobenzoic) acid (DTNB, Ellman’s reagent), acetylcholinesterase and butyrylcholinesterase derived from human erythrocytes were purchased from Sigma Chemical (St. Louis, MO, USA). The compounds were dissolved in DMSO. The reaction mixture (totally 200 μL) containing phosphate buffer (pH 8.0), test compound (50 μM), and acetyl cholinesterase (0.02 U/mL) or butyrylcholinesterase (0.016 U/mL), was incubated for 20 min (37 °C). […] All of the reactions were performed in triplicate. The percentage inhibition was calculated as follows: % inhibition = (E − S)/E × 100 (E is the activity of the enzyme without test compound, and S is the activity of the enzyme with test compound)."}, "[2]": {"test_system": "acetylcholinesterase (AChE)", "conditions": "50 μM", "description": "as §1"}, "[3]": {"test_system": "Escherichia coli (ATCC25922)", "assay": "Antimicrobial assay (broth dilution and Oxford cup method)", "type": "cell-based", "conditions": "100 μM", "description": "(§2) The broth dilution method and Oxford cup method were used to detect antimicrobial activity against reference strains, including Salmonella enterica subsp. enterica (ATCC14028), Staphylococcus aureus subsp. aureus (ATCC29213), Escherichia coli (ATCC25922), Pseudomonas aeruginosa (ATCC27853), and Candida albicans (ATCC10231). Ceftazidime and penicillin G sodium and amphotericin B served as an antibacterial and antifungal positive control, respectively."}, "[4]": {"test_system": "Candida albicans (ATCC10231)", "assay": "Antimicrobial assay (broth dilution and Oxford cup method)", "type": "cell-based", "conditions": "100 μM", "description": "as §2"}, "[5]": {"test_system": "Pseudomonas aeruginosa (ATCC27853)", "assay": "Antimicrobial assay (broth dilution and Oxford cup method)", "type": "cell-based", "conditions": "100 μM", "description": "as §2"}, "[6]": {"test_system": "Salmonella enterica (ATCC14028)", "assay": "Antimicrobial assay (broth dilution and Oxford cup method)", "type": "cell-based, Salmonella enterica subsp. enterica", "conditions": "100 μM", "description": "as §2"}, "[7]": {"test_system": "Staphylococcus aureus (ATCC29213)", "assay": "Antimicrobial assay (broth dilution and Oxford cup method)", "type": "cell-based, Staphylococcus aureus subsp. aureus", "conditions": "100 μM", "description": "as §2"}, "α-glucosidase": {"test_system": "α-glucosidase", "assay": "α-Glucosidase inhibition assay (4-NPGP)", "type": "biochemical", "description": "An enzyme inhibitor screening model was chosen using 4-nitro-phenol-α-D-glucopyranoside (4-NPGP) and slightly modified. Briefly, the test compound (50 μM), α-glucosidase solution (0.025 U/mL), phosphate buffer (pH 6.9), and (4-NPGP) (1 μM) were incubated in 96-well plates at 37 °C for 50 min. […] Quercetin was selected as the positive control. All of the reactions were repeated three times."}, "MAO-B [8]": {"target": "T3, MAO-B (Homo sapiens, UniProt P27338)", "T3 sequence (P27338 1-520)": "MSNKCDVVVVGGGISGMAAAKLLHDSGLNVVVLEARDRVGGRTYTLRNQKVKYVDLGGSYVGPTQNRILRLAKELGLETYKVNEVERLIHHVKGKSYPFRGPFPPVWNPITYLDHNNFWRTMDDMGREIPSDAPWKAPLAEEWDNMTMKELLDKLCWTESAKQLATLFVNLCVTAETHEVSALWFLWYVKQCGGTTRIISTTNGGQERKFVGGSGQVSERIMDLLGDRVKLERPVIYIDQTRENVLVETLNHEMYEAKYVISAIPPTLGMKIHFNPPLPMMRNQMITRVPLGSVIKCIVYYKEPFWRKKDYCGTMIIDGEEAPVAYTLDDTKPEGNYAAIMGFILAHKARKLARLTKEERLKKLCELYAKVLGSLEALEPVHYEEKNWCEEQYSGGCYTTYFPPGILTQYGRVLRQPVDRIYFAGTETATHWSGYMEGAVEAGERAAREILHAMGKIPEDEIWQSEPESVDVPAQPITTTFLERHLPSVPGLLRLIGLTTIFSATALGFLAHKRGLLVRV", "assay": "biochemical"}, "[9]": {"test_system": "LPS-induced NO production in RAW264.7 cells", "assay": "Anti-inflammatory assay: inhibition of LPS-induced NO production", "type": "cell-based"}, "MAO-B [10]": {"target": "T3, MAO-B", "conditions": "previous studies of the authors; read-out: IC50 against MAO-B; cited from earlier work"}}, "note": "Like-named read-outs stand apart in the source and are kept apart here."}
{"smiles": "C=C(C)[C@H](O)[C@@H](OCC)c1c(OC)ccc(/C=C/C(=O)O[C@H](Cc2c(OC)ccc3ccc(=O)oc23)C(C)(C)O)c1O", "note": "[Compound 1, (E)-(R)-3-hydroxy-1-(7-methoxy-2-oxo-2H-chromen-8-yl)-3-methylbutan-2-yl·3-(3-((1S, 2S)-1-ethoxy-2-hydroxy-3-methylbut-3-en-1-yl)-2-hydroxy-4-methoxyphenyl)acrylate]", "values": [{"measurement": "IC50", "setting": "MAO-A", "result": "26300 ± 1030", "unit": "nM"}, {"measurement": "BuChE inhibitory activity", "setting": "[1]", "result": "did not show any inhibitory activity"}, {"measurement": "AChE inhibitory activity", "setting": "[2]", "result": "did not show any inhibitory activity"}, {"measurement": "inhibitory effect against Escherichia coli (ATCC25922)", "setting": "[3]", "result": "did not lead to a significant inhibitory effect"}, {"measurement": "inhibitory effect against Candida albicans (ATCC10231)", "setting": "[4]", "result": "did not lead to a significant inhibitory effect"}, {"measurement": "inhibitory effect against Pseudomonas aeruginosa (ATCC27853)", "setting": "[5]", "result": "did not lead to a significant inhibitory effect"}, {"measurement": "inhibitory effect against Salmonella enterica (ATCC14028)", "setting": "[6]", "result": "did not lead to a significant inhibitory effect"}, {"measurement": "inhibitory effect against Staphylococcus aureus (ATCC29213)", "setting": "[7]", "result": "did not lead to a significant inhibitory effect"}, {"measurement": "α-glucosidase percentage of inhibition", "setting": "α-glucosidase; 50 μM", "result": "less than 50%"}, {"measurement": "SI: MAO-B selectivity index = IC50 (MAO-A)/IC50 (MAO-B)", "setting": "MAO-B [8]", "result": 172}, {"measurement": "IC50", "setting": "MAO-B [8]; mean ± S.E.M. from three experiments", "result": "153 ± 1.58", "unit": "nM"}, {"measurement": "inhibition against LPS-induced NO production", "setting": "[9]", "result": 34.59, "unit": "%"}]}
{"smiles": "[H]/N=C(/NC)NCCC[C@H](N)C(=O)O", "note": "[L-NMMA, NG-monomethyl-L-arginine, reference compound]", "values": [{"measurement": "inhibition against LPS-induced NO production", "setting": "[9]", "result": 56.13, "unit": "%"}]}
{"smiles": "COc1c(OC/C=C(\\C)C[C@@H]2C=C(CCC(N)=O)C(=O)O2)ccc2ccc(=O)oc12", "note": "[anisucoumaramide]", "values": [{"measurement": "IC50", "setting": "MAO-B [10]", "result": "143.7 ± 0.9", "unit": "nM"}]}
{"smiles": "O=c1c(O)c(-c2ccc(O)c(O)c2)oc2cc(O)cc(O)c12", "note": "[quercetin, reference compound]", "values": [{"measurement": "α-glucosidase inhibition (positive control)", "setting": "α-glucosidase; concentration not given", "result": 53.17, "unit": "%"}]}
